# What was measured:
# armyworm = assay: bioactivity test against armyworm, airbrush spray; format: in vivo
# corn rust = assay: protectant activity in vivo against corn rust; settings: for pest or weed control at 6.25 µg/mL: read-out: control effect against corn rust (%), 6.25 mg/L; for pest or weed control at 6.25 µg/mL / pest or weed control at 25 µg/mL / pest or weed control at 100 µg/mL / pest or weed control at 400 µg/mL: protectant activity; for pest or weed control at 25 µg/mL: read-out: control effect against corn rust (%), 25 mg/L; for pest or weed control at 100 µg/mL: read-out: control effect against corn rust (%), 100 mg/L; for pest or weed control at 400 µg/mL: read-out: control effect against corn rust (%), 400 mg/L; for pest or weed control at 400 ppm: read-out: protectant activity against corn rust in vivo, 400 ppm; for pest or weed control at 100 ppm: read-out: protectant activity against corn rust in vivo, 100 ppm
# rice blast = assay: microbe, parasite or virus in culture; format: cell-based; settings: for inhibition at 8.3 ppm / inhibition at 25 ppm / inhibition at 0.1 ppm / inhibition at 0.3 ppm / inhibition at 0.9 ppm / inhibition at 2.8 ppm: Pyricularia oryzae; for inhibition at 8.3 ppm: read-out: inhibition rate against rice blast, 8.3 ppm, in vitro; for inhibition at 25 ppm: read-out: inhibition rate against rice blast, 25 ppm, in vitro; for inhibition at 0.1 ppm: read-out: inhibition rate against rice blast, 0.1 ppm, in vitro; for inhibition at 0.3 ppm: read-out: inhibition rate against rice blast, 0.3 ppm, in vitro; for inhibition at 0.9 ppm: read-out: inhibition rate against rice blast, 0.9 ppm, in vitro; for inhibition at 2.8 ppm: read-out: inhibition rate against rice blast, 2.8 ppm, in vitro; for inhibition rate against rice blast: in vitro
# cucumber downy mildew = assay: protectant activity in vivo against cucumber downy mildew; settings: Cucumis sativus, 168 h; for pest or weed control at 400 ppm: read-out: protectant activity against cucumber downy mildew in vivo, 400 ppm; for pest or weed control at 50 ppm: read-out: protectant activity against cucumber downy mildew in vivo, 50 ppm; for pest or weed control at 100 ppm: read-out: protectant activity against cucumber downy mildew in vivo, 100 ppm
# [1] = system: Green peach aphids (Myzus Persicae Sulzer); assay: bioactivity test against green peach aphid, airbrush foliar spray; format: in vivo; settings: death rate after 48 hrs
# In short: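 Aphids (15-30 per cabbage leaf disc) on moist filter paper were airbrush-sprayed at 10 psi, 0.5 mL, with compound from acetone:methanol (1:1) diluted in water with 0.1% tween 80. Held at 25±1 C, 60±5% RH; survivors counted after 48 hrs to give death rates.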
# carmine spider mite = assay: bioactivity test against carmine spider mite, airbrush spray; format: in vivo; settings: mortality after 72 hrs; for pest or weed control at 100 ppm / pest or weed control at 600 ppm: Tetranychus cinnabarinus, 72 h
# In short: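 Broadbean seedlings infested with adult mites were sprayed with compound (acetone/methanol stock diluted in 0.1% Tween 80 water) by airbrush at 0.7 kg/cm^2, 0.5 ml. Three replicates were run. Mortality was scored after 72 hrs.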
# wheat powdery mildew = assay: protectant activity in vivo against wheat powdery mildew; settings: for pest or weed control at 100 ppm: read-out: protectant activity against wheat powdery mildew in vivo, 100 ppm; for pest or weed control at 400 ppm: read-out: protectant activity against wheat powdery mildew in vivo, 400 ppm
# [2] = Myzus persicae, foliar, 48 h, 100 ppm
# [3] = Myzus persicae, foliar, 48 h, 600 ppm
# [4] = Myzus persicae, foliar, 48 h, 10 ppm
smiles,measurement,setting,value
"Cc1c(Cl)c(NCCc2ccc(Oc3ccc(C(F)(F)F)cn3)cc2)nc[n+]1CC(=O)c1ccc(Cl)cc1 [CK49, reference compound]",pest or weed control at 600 µg/mL,"armyworm; 72 h, 600 mg/L, read-out: Insecticidal activity against armyworm (%)",17%
same,pest or weed control at 6.25 µg/mL,"corn rust; Zea mays, 168 h",0%
same,pest or weed control at 25 µg/mL,"corn rust; Zea mays, 168 h",0%
same,pest or weed control at 100 µg/mL,"corn rust; Zea mays, 168 h",30%
same,pest or weed control at 400 µg/mL,"corn rust; Zea mays, 168 h",85%
same,inhibition at 8.3 ppm,rice blast,0%
same,inhibition at 25 ppm,rice blast,< 50%
"CCc1c(Cl)c(NCCc2ccc(Oc3ccc(C(F)(F)F)cc3)cc2)nc[n+]1CC(=O)c1ccc(Cl)cc1 [CK50, reference compound]",pest or weed control at 6.25 µg/mL,"corn rust; Zea mays, 168 h",0%
same,pest or weed control at 25 µg/mL,"corn rust; Zea mays, 168 h",0%
same,pest or weed control at 100 µg/mL,"corn rust; Zea mays, 168 h",0%
same,pest or weed control at 400 µg/mL,"corn rust; Zea mays, 168 h",80%
same,inhibition at 8.3 ppm,rice blast,0%
same,inhibition at 25 ppm,rice blast,< 50%
Cc1ncnc(NCCc2ccc(Oc3ncc(C(F)(F)Cl)cc3Cl)cc2)c1Cl [Compound I-483],pest or weed control at 400 ppm,cucumber downy mildew,100%
same,pest or weed control at 100 ppm,[1]; [2],100%
same,pest or weed control at 600 ppm,[1]; [3],100%
same,pest or weed control at 100 ppm,carmine spider mite; 100 ppm,80 to 99%
same,pest or weed control at 600 ppm,carmine spider mite; 600 ppm,100%
same,pest or weed control at 100 ppm,"wheat powdery mildew; Triticum aestivum, 168 h",80 to 99%
same,pest or weed control at 400 ppm,"wheat powdery mildew; Triticum aestivum, 168 h",80 to 99%
same,pest or weed control at 400 ppm,"corn rust; Zea mays, 168 h",100%
same,inhibition at 0.1 ppm,rice blast,100%
same,inhibition at 0.3 ppm,rice blast,100%
same,inhibition at 0.9 ppm,rice blast,100%
same,inhibition at 2.8 ppm,rice blast,100%
same,inhibition at 8.3 ppm,rice blast,100%
same,inhibition at 25 ppm,rice blast,100%
FC(F)(F)c1ccc(Oc2ccc(CCNc3ncnc(CCl)c3Cl)cc2)nc1 [Compound I-2922],protectant activity against corn rust in vivo,corn rust; 100 ppm,100%
same,protectant activity against corn rust in vivo,corn rust; 400 ppm,100%
same,inhibition rate against rice blast,rice blast; 0.1 ppm,100%
same,inhibition rate against rice blast,rice blast; 0.3 ppm,100%
same,inhibition rate against rice blast,rice blast; 0.9 ppm,100%
same,inhibition rate against rice blast,rice blast; 2.8 ppm,100%
same,inhibition rate against rice blast,rice blast; 8.3 ppm,100%
Cc1ncnc(NCCc2ccc(Oc3ccc(C(F)(F)F)cn3)cc2)c1Cl [Compound I-6763],control (test results against armyworm),"armyworm; 600 ppm, mortality after 72 h",100%
same,pest or weed control at 100 ppm,"armyworm; 72 h, 100 ppm, mortality after 72 h",100%
same,control (test results against green peach aphid),[1]; 10 ppm,100%
same,control (test results against green peach aphid),[1]; 100 ppm,100%
same,control (test results against green peach aphid),[1]; 600 ppm,100%
same,pest or weed control at 5 ppm,"[1]; Myzus persicae, foliar, 48 h, 5 ppm",100%
same,control against carmine spider mite,carmine spider mite; 100 ppm,100%
same,control against carmine spider mite,carmine spider mite; 600 ppm,100%
same,protectant activity against wheat powdery mildew in vivo,wheat powdery mildew; 100 ppm,100%
same,protectant activity against wheat powdery mildew in vivo,wheat powdery mildew; 400 ppm,100%
same,protectant activity against corn rust in vivo,corn rust; 100 ppm,100%
same,protectant activity against corn rust in vivo,corn rust; 400 ppm,100%
same,inhibition at 25 ppm,rice blast,100%
CCc1nc(C)nc(NCCc2ccc(Oc3ncc(C(N)=O)cc3Cl)cc2)c1Cl [Compound I-6791],pest or weed control at 100 ppm,"corn rust; Zea mays, 168 h",80 to 99%
same,pest or weed control at 400 ppm,"corn rust; Zea mays, 168 h",100%
same,inhibition at 25 ppm,rice blast,80 to 99%
CCc1nc(C)nc(NCCc2ccc(Oc3ncccc3C(F)(F)F)cc2)c1Cl [Compound I-6793],pest or weed control at 400 ppm,cucumber downy mildew,80 to 99%
same,pest or weed control at 10 ppm,[1]; [4],80 to 99%
same,pest or weed control at 100 ppm,[1]; [2],100%
same,pest or weed control at 600 ppm,[1]; [3],100%
same,pest or weed control at 25 ppm,"wheat powdery mildew; Triticum aestivum, 168 h, read-out: protectant activity against wheat powdery mildew in vivo, 25 ppm",100%
same,pest or weed control at 100 ppm,"wheat powdery mildew; Triticum aestivum, 168 h",100%
same,pest or weed control at 400 ppm,"wheat powdery mildew; Triticum aestivum, 168 h",100%
same,pest or weed control at 400 ppm,"corn rust; Zea mays, 168 h",100%
same,inhibition at 25 ppm,rice blast,80 to 99%
CCc1nc(C)nc(NCCc2ccc(Oc3ccc(C#N)cn3)cc2)c1Cl [Compound I-6795],pest or weed control at 600 ppm,[1]; [3],100%
same,pest or weed control at 100 ppm,carmine spider mite; 100 ppm,100%
same,pest or weed control at 600 ppm,carmine spider mite; 600 ppm,100%
same,pest or weed control at 400 ppm,"wheat powdery mildew; Triticum aestivum, 168 h",100%
same,pest or weed control at 400 ppm,"corn rust; Zea mays, 168 h",100%
same,inhibition at 25 ppm,rice blast,80 to 99%
CCOC(=O)c1ccc(Oc2ccc(CCNc3nc(C)nc(CC)c3Cl)cc2)nc1 [Compound I-6796],pest or weed control at 50 ppm,cucumber downy mildew,80 to 99%
same,pest or weed control at 100 ppm,cucumber downy mildew,80 to 99%
same,pest or weed control at 400 ppm,cucumber downy mildew,100%
same,pest or weed control at 10 ppm,[1]; [4],100%
same,pest or weed control at 100 ppm,[1]; [2],100%
same,pest or weed control at 600 ppm,[1]; [3],100%
same,pest or weed control at 600 ppm,carmine spider mite; 600 ppm,80 to 99%
same,pest or weed control at 400 ppm,"wheat powdery mildew; Triticum aestivum, 168 h",100%
same,pest or weed control at 6.25 ppm,"corn rust; Zea mays, 168 h, read-out: protectant activity against corn rust in vivo, 6.25 ppm",80 to 99%
same,pest or weed control at 25 ppm,"corn rust; Zea mays, 168 h, read-out: protectant activity against corn rust in vivo, 25 ppm",80 to 99%
same,pest or weed control at 100 ppm,"corn rust; Zea mays, 168 h",100%
same,pest or weed control at 400 ppm,"corn rust; Zea mays, 168 h",100%
same,inhibition at 25 ppm,rice blast,80 to 99%
CCc1nc(C)nc(NCCc2ccc(Oc3ccc(C(=O)OC)cn3)cc2)c1Cl [Compound I-6797],pest or weed control at 400 ppm,cucumber downy mildew,80 to 99%
same,pest or weed control at 10 ppm,[1]; [4],80 to 99%
same,pest or weed control at 100 ppm,[1]; [2],100%
same,pest or weed control at 600 ppm,[1]; [3],100%
same,pest or weed control at 100 ppm,carmine spider mite; 100 ppm,100%
same,pest or weed control at 600 ppm,carmine spider mite; 600 ppm,100%
same,pest or weed control at 400 ppm,"wheat powdery mildew; Triticum aestivum, 168 h",80 to 99%
same,inhibition at 25 ppm,rice blast,80 to 99%
Cc1ncnc(NCCc2ccc(Oc3c(Cl)cc([N+](=O)[O-])cc3Cl)cc2)c1Cl [II-165],pest or weed control at 600 ppm,carmine spider mite; 600 ppm,80 to 99%
same,pest or weed control at 100 ppm,"corn rust; Zea mays, 168 h",80 to 99%
same,pest or weed control at 400 ppm,"corn rust; Zea mays, 168 h",100%
same,inhibition at 0.1 ppm,rice blast,100%
same,inhibition at 0.3 ppm,rice blast,100%
same,inhibition at 0.9 ppm,rice blast,100%
same,inhibition at 2.8 ppm,rice blast,100%
same,inhibition at 8.3 ppm,rice blast,100%
same,inhibition at 25 ppm,rice blast,100%
FC(F)c1ncnc(NCCc2ccc(Oc3ccc(C(F)(F)F)cc3Cl)nc2)c1Cl [III-661],control (test results against green peach aphid),[1]; 100 ppm,100%
same,control (test results against green peach aphid),[1]; 600 ppm,100%
same,protectant activity against corn rust in vivo,corn rust; 100 ppm,100%
same,protectant activity against corn rust in vivo,corn rust; 400 ppm,100%
same,inhibition rate against rice blast,rice blast; 8.3 ppm,100%
Cc1cc(Cl)ccc1Oc1ccc(CCNc2ncnc(Cl)c2Cl)cn1 [III-2630],pest or weed control at 50 ppm,cucumber downy mildew,80 to 99%
same,pest or weed control at 100 ppm,cucumber downy mildew,80 to 99%
same,pest or weed control at 400 ppm,cucumber downy mildew,100%
same,pest or weed control at 400 ppm,"corn rust; Zea mays, 168 h",100%
same,inhibition at 25 ppm,rice blast,80 to 99%

# Reference: patent US9770026B2, “Substituted pyrimidine compound and uses thereof” (Shenyang Sinochem Agrochemicals R&D Co., Ltd., priority 2012, dated 2017)
